Results on 56 compounds are retold here after patent US20250090540A1, “PI3K-ALPHA INHIBITORS AND METHODS OF USE THEREOF” (Relay Therapeutics, Inc., priority 2021, published 2025).

H1047R PIK3CA enzyme, sequence (P42336 whole entry H1047R): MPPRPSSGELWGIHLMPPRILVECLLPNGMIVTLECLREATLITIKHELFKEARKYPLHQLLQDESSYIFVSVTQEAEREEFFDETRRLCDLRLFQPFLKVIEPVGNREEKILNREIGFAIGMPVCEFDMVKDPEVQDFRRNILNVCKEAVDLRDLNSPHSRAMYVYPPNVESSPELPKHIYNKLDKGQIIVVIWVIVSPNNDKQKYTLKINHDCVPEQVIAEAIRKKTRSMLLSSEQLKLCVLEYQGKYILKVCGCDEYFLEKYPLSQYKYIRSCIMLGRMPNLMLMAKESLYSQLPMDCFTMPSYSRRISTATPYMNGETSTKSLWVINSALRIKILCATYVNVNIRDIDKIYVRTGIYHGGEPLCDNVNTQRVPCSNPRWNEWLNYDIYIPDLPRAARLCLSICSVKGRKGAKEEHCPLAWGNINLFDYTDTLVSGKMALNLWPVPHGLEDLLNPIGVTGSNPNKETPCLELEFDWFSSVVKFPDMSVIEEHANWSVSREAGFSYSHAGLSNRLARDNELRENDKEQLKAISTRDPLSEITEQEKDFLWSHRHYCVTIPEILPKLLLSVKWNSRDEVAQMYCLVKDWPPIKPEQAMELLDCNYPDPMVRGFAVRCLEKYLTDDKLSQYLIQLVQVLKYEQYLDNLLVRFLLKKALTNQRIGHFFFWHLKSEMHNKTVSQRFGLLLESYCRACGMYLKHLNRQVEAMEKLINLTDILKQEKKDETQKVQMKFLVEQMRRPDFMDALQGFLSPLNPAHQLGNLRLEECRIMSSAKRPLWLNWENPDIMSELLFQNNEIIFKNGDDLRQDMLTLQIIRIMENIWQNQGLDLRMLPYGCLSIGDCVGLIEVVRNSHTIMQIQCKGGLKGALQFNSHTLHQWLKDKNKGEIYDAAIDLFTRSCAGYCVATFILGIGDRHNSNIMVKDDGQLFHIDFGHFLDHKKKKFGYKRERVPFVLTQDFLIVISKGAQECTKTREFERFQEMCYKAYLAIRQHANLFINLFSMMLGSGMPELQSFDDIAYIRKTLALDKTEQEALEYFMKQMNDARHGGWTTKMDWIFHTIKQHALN
H1047R PIK3CA enzyme, sequence (P27986 whole entry partner): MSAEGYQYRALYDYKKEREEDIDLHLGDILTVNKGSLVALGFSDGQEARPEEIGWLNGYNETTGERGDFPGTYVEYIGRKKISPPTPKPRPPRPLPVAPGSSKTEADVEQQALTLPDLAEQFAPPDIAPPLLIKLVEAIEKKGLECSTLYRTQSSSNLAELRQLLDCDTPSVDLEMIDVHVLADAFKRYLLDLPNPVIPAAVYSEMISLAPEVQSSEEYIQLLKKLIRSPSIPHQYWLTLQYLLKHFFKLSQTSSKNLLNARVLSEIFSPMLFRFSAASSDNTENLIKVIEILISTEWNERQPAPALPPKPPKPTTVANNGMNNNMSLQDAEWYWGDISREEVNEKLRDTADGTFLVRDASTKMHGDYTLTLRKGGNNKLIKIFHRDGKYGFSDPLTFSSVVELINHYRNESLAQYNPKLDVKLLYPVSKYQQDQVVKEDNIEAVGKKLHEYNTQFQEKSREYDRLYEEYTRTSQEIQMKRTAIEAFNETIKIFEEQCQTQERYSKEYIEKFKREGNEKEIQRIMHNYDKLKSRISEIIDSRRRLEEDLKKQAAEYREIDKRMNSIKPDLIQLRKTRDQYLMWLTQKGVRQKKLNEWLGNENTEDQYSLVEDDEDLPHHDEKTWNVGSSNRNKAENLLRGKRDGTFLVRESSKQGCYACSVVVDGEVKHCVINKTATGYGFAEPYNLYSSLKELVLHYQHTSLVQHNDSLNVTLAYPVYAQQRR

The assay has as its target H1047R PIK3CA enzyme (Homo sapiens, UniProt P42336, H1047R). The assay is described as follows: ADP-Glo Biochemical PIK3CA Kinase Assay. The method, then: Compounds to be assayed were plated in 16 doses of 1:2 serial dilutions (20 nL volume each well) on a 1536-well plate, and the plate warmed to room temperature. PIK3CA enzyme (e.g. H1047R, E542K, E545K, or wild-type) (1 μL of 2 nM solution in Enzyme Assay Buffer (comprising 50 mM HEPES pH 7.4, 50 mM NaCl, 6 mM MgCl2, 5 mM DTT and 0.03% CHAPS)) was added and shaken for 10 seconds and preincubated for 30 minutes. To the well was added 1 μL of 200 μM ATP and 20 μM of diC8-PIP2 in Substrate Assay Buffer (50 mM HEPES pH7.4, 50 mM NaCl, 5 mM DTT and 0.03% CHAPS) to start the reaction, and the plate was shaken for 10 seconds, then spun briefly at 1500 rpm, and then incubated for 60 minutes at room temperature. The reaction was stopped by adding 2 μL of ADP-Glo reagent (Promega), and spinning briefly at 1500 rpm, and then incubating for 40 minutes. ADP-Glo Detection reagent (Promega) was added and the plate spun briefly at 1500 rpm, then incubated for 30 minutes.
The term IC50 denotes the concentration that gives 50% inhibition. Low values mean greater potency in that assay, high ones weaker potency in that assay. `CNC(=O)c1cnc(Nc2ccccc2S(C)(=O)=O)c(NC(=O)c2cc(F)cc(C(F)(F)F)c2)c1` [I-47] gave an IC50 of 10 to 100 µM.

`CNC(=O)c1cnc(Nc2ccccc2C)c(NC(=O)c2ncn3ccccc23)c1` [I-48]: the IC50 lay in the range of 10 to 100 µM.

`Cc1ccccc1Nc1ncc(C#N)cc1NC(=O)c1cc(F)cc(C(F)(F)F)c1` [I-49] came in with an IC50 of 1 to 10 µM.

In turn, `CNC(=O)c1cnc(Nc2ccccc2C)c(NS(=O)(=O)c2cn(C)nc2C)c1` [I-55] yielded an IC50 of 10 to 100 µM.

`CNc1ncc(Br)cc1NC(=O)c1cc(F)cc(C(F)(F)F)c1` [I-58] gave an IC50 of 10 to 100 µM.

The compound `Cc1ccc(NC(=O)c2cc(F)cc(C(F)(F)F)c2)c(Nc2ccccc2C)n1` [I-59] displayed an IC50 of 1 to 10 µM.

Regarding `Cc1ccccc1Nc1ncc(-c2cnn(C)c2)cc1Nc1ncnn2cccc12` [I-61], the IC50 was in the range of 10 to 100 µM.

In turn, `Cc1ccccc1Nc1ncc(NS(C)(=O)=O)cc1NC(=O)c1cc(F)cc(C(F)(F)F)c1` [I-62] came in with an IC50 of 1 to 10 µM.

As for `Cc1ccccc1Nc1ncc(CO)cc1NC(=O)c1cc(F)cc(C(F)(F)F)c1` [I-63], the IC50 is 1 to 10 µM.

Compound `CNC(=O)c1cnc(Nc2ccccc2C)c(NC(=O)c2cccc(C(F)(F)F)c2)c1` [I-66] had a concentration for half-maximal inhibition (IC50) of 1 to 10 µM.

In turn, `Cc1ccccc1Nc1ncc(C(=O)NS(C)(=O)=O)cc1NC(=O)c1cc(F)cc(C(F)(F)F)c1` [I-69] yielded an IC50 of 10 to 100 µM.

The compound `Cc1ccccc1Nc1ncc(N)cc1NC(=O)c1cc(F)cc(C(F)(F)F)c1` [I-70] had an IC50 of 1 to 10 µM.

In turn, `CNc1ncc(-c2cnn(C)c2)cc1NC(=O)c1cc(F)cc(C(F)(F)F)c1` [I-71] registered an IC50 of 10 to 100 µM.

With `Cc1ccccc1Nc1ncc(N2CC(N)C2)cc1NC(=O)c1cc(F)cc(C(F)(F)F)c1` [I-73], the IC50 was in the range of 1 to 10 µM.

On to `Cc1ccccc1Nc1ncc(-c2ccn[nH]2)cc1NC(=O)c1cc(F)cc(C(F)(F)F)c1` [I-74], for which the IC50 was in the range of 1 to 10 µM.

For the compound `Cc1ccccc1Nc1ncc(-c2ccc(CNC(=O)OC(C)(C)C)cc2)cc1NC(=O)c1cc(F)cc(C(F)(F)F)c1` [I-76], the IC50 lay within 1 to 10 µM.

With `Cc1ccccc1Nc1ncc(-c2cccnc2)cc1NC(=O)c1cc(F)cc(C(F)(F)F)c1` [I-77], the IC50 was in the range of 1 to 10 µM.

`Cc1ccccc1Nc1ncc(-c2c(C)noc2C)cc1NC(=O)c1cc(F)cc(C(F)(F)F)c1` [I-78] showed an IC50 of 0.5 to 1 µM.

Regarding `Cc1ccccc1Nc1ncc(-c2ccc(NC(=O)OC(C)(C)C)cc2)cc1NC(=O)c1cc(F)cc(C(F)(F)F)c1` [I-80], the IC50 was in the range of 1 to 10 µM.

`Cc1ccccc1Nc1ncc(-c2cn[nH]c2)cc1NC(=O)c1cc(F)cc(C(F)(F)F)c1` [I-81] gave an IC50 of 1 to 10 µM.

For the compound `Cc1ccccc1Nc1ncc(-c2ccccc2C#N)cc1NC(=O)c1cc(F)cc(C(F)(F)F)c1` [I-83], the IC50 was 0.5 to 1 µM.

Regarding `CNC(=O)c1cnc(Nc2ccccc2C)c(NCc2cc(F)cc(C(F)(F)F)c2)c1` [I-85], the IC50 lay in the range of 10 to 100 µM.

`Cc1ccccc1Nc1ncc(C(=O)NCCO)cc1NC(=O)c1cc(F)cc(C(F)(F)F)c1` [I-86]: the IC50 was in the range of 0.5 to 1 µM.

The compound `CNC(=O)c1cnc(Nc2ccccc2C)c(NC(=O)c2c[nH]c3ccccc23)c1` [I-87] had an IC50 of 10 to 100 µM.

Take `Cc1ccccc1Nc1ncc(-c2cnn(C3CCOCC3)c2)cc1NC(=O)c1cc(F)cc(C(F)(F)F)c1` [I-88]: the IC50 lay in the range of 0.5 to 1 µM.

The compound `Cc1ccccc1Nc1ncc(-c2cnn(C)c2)cc1NC(=O)c1cccn2nccc12` [I-89] registered an IC50 of 10 to 100 µM.

`Cc1ccccc1Nc1ncc(-c2cnn(C3CCN(C(=O)OC(C)(C)C)CC3)c2)cc1NC(=O)c1cc(F)cc(C(F)(F)F)c1` [I-90] returned an IC50 of 1 to 10 µM.

For the compound `Cc1ccccc1Nc1ncc(-c2cnn(C3CCNCC3)c2)cc1NC(=O)c1cc(F)cc(C(F)(F)F)c1` [I-91], the IC50 lay in the range of 0.5 to 1 µM.

On to `Cc1ccccc1Nc1ncc(-c2cnn(C)c2)cc1NC(=O)N1CCOc2ccccc21` [I-92], for which the IC50 fell in the range of 10 to 100 µM.

For the compound `COc1cc(F)cc(C(=O)Nc2cc(-c3cnn(C)c3)cnc2Nc2ccccc2C)c1` [I-94], the IC50 lay within 10 to 100 µM.

Compound `Cc1cc(F)cc(C(=O)Nc2cc(-c3cnn(C)c3)cnc2Nc2ccccc2C)c1` [I-95] returned an IC50 of 1 to 10 µM.

`Cc1ccccc1Nc1ncc(-c2cnn(C)c2)cc1NC(=O)c1cc(F)cc(Br)c1` [I-96] came in with an IC50 of 0.5 to 1 µM.

For the compound `Cc1ccccc1Nc1ncc(-c2cnn(C)c2)cc1NC(=O)c1cc(F)cc(Cl)c1` [I-97], the IC50 lay in the range of 0.5 to 1 µM.

In the case of `Cc1ccccc1Nc1ncc(-c2cnn(C)c2)cc1NC(=O)c1ccnc2c1ccn2C` [I-98], the IC50 was 10 to 100 µM.

As for `Cc1ccccc1Nc1ncc(-c2cnn(C)c2)cc1NC(=O)c1cccc(Br)c1` [I-99], the IC50 fell in the range of 1 to 10 µM.

The compound `Cc1ccccc1Nc1ncc(-c2cnn(C)c2)cc1NC(=O)c1cccc2c1cnn2C` [I-100] showed an IC50 of 10 to 100 µM.

For `Cc1ccccc1Nc1ncc(-c2cnn(C)c2)cc1NC(=O)c1cc(F)cc(F)c1` [I-101], the IC50 was 1 to 10 µM.

`Cc1ccccc1Nc1ncc(-c2cnn(C)c2)cc1NC(=O)c1ccc(F)c(C(F)(F)F)c1` [I-102] showed an IC50 of 1 to 10 µM.

In turn, `Cc1ccccc1Nc1ncc(-c2cnn(C)c2)cc1NC(=O)c1ccc2cc[nH]c2c1` [I-103] yielded an IC50 of 10 to 100 µM.

For the compound `Cc1ccccc1Nc1ncc(-c2cnn(C)c2)cc1NC(=O)c1ccc(Cl)c(Cl)c1` [I-104], the IC50 was 1 to 10 µM.

`Cc1ccccc1Nc1ncc(-c2cnn(C)c2)cc1NC(=O)c1cccc2ccncc12` [I-105]: the IC50 was in the range of 10 to 100 µM.

`Cc1ccccc1Nc1ncc(-c2cnn(C)c2)cc1NC(=O)c1ccc(C#N)cc1` [I-106]: the IC50 was 10 to 100 µM.

As to `Cc1ccccc1Nc1ncc(-c2cnn(C)c2)cc1NC(=O)c1ccccc1C(F)(F)F` [I-107], the IC50 is 10 to 100 µM.

In the case of `Cc1ccccc1Nc1ncc(-c2cnn(C)c2)cc1NC(=O)c1ccc2[nH]ncc2c1` [I-108], the half-maximal inhibitory concentration (IC50) lay in the range of 10 to 100 µM.

In turn, `Cc1ccc(C(=O)Nc2cc(-c3cnn(C)c3)cnc2Nc2ccccc2C)cc1` [I-109] returned an IC50 of 10 to 100 µM.

In turn, `Cc1ccccc1Nc1ncc(-c2cnn(C)c2)cc1NC(=O)c1cccc(C(F)(F)F)c1` [I-110] yielded an IC50 of 1 to 10 µM.

In turn, `Cc1ccccc1Nc1ncc(-c2cnn(C)c2)cc1NC(=O)c1ccccc1OC(F)(F)F` [I-111] came in with an IC50 of 10 to 100 µM.

For the compound `Cc1ccccc1Nc1ncc(-c2cnn(C)c2)cc1NC(=O)c1cccc2nn(C)cc12` [I-112], the concentration for half-maximal inhibition (IC50) was in the range of 10 to 100 µM.

With `Cc1ccccc1Nc1ncc(-c2cnn(C)c2)cc1NC(=O)c1cccc2ccccc12` [I-113], the IC50 was 10 to 100 µM.

`CC(=O)Nc1ccc(C(=O)Nc2cc(-c3cnn(C)c3)cnc2Nc2ccccc2C)cc1` [I-114] yielded an IC50 of 10 to 100 µM.

The compound `Cc1cccc(C(=O)Nc2cc(-c3cnn(C)c3)cnc2Nc2ccccc2C)c1` [I-115] yielded a half-inhibitory concentration (IC50) of 10 to 100 µM.

For the compound `Cc1ccccc1Nc1ncc(-c2cnn(C)c2)cc1NC(=O)c1cccc(C#N)c1` [I-116], the IC50 is 10 to 100 µM.

Take `Cc1ccccc1Nc1ncc(-c2cnn(C)c2)cc1NC(=O)c1ccc(C(F)(F)F)cc1` [I-117]: the IC50 fell in the range of 10 to 100 µM.

For `Cc1ccccc1Nc1ncc(-c2cnn(C)c2)cc1NC(=O)c1cccc(S(C)(=O)=O)c1` [I-118], the half-maximal inhibitory concentration (IC50) lay in the range of 10 to 100 µM.

`Cc1ccccc1Nc1ncc(-c2cnn(C)c2)cc1NC(=O)c1cccc2cnccc12` [I-119] showed an IC50 of 10 to 100 µM.

`Cc1ccccc1Nc1ncc(-c2cnn(C)c2)cc1NC(=O)c1cccc(N(C)C)c1` [I-120] returned an IC50 of 10 to 100 µM.
